The results in this text go back to US8410045B2, “Camptothecin-peptide conjugates and pharmaceutical compositions containing the same” (Drais Pharmaceuticals, Inc., priority 2006, dated 2013).

Where two headings read alike, the source gives them in different places. Where a SMILES comes first, the peptide text is derived from it. Where no end group is shown, it is not given here. The star is where a group is joined. X4 = CC[C@@]1(O)C(=O)OCc2c1cc1n(c2=O)Cc2cc3cc(OC(=O)[C@H]4CC[C@H](CNC(=O)C5CCC(CN6C(=O)CC(*)C6=O)CC5)CC4)ccc3nc2-1

Data set [1] is described as follows: Stability of conjugates in citrated plasma at 37° C. (half life time, HPLC fluorescence). The class given is in vitro ADME, human. The conditions noted are these: human, plasma, read-out: Human Plasma Half life time. Here is the method: (§1) The stability of the conjugates was tested in citrated plasma (10% (v/v) sodium citrate buffer, 0.106M) from different species (see Table 1 below). The conjugates at 2.55 μM were incubated at 37° C. in plasma. Samples were analysed using the HPLC fluorescence method described below (see chromatographic equipment and conditions) following TFA/acetonitrile extraction and the amount of free camptothecin, analogs or derivatives thereof (e.g. SN38) released by the conjugates was measured.
(§2) Chromatographic equipment and conditions: 150 μL of each sample were placed in 1.5 mL micro-centrifuge tubes. 450 μL of 5% (v/v) TFA in H2O was added to each tube and the mixture was vortexed for 5 seconds. Samples were then centrifuged at 16000 g, 3 minutes at +4° C. 100 μL of supernatant were placed in 1.5 mL micro-centrifuge tubes. Methanol (100 μL) was then immediately added and vortexed for 5 seconds. Samples were then centrifuged at 16000 g, 3 minutes at room temperature. 150 μL of supernatant were recovered for HPLC analysis. Conjugates, metabolites and camptothecin derivative (i.e. SN38) were separated by high-performance liquid chromatography (HPLC; Agilent 1100 series equipped with a fluorescence detector) using a 4.6×100 mm ([…] particle size) Luna C18(2) column (Phenomenex ref. 00D-4251-E0, Le Pecq, France). The aqueous component of the mobile phase (A) was 0.1% (v/v) TFA in water. The organic modifier (B) was acetonitrile containing 0.1% (v/v) TFA. For the conjugate and its metabolites an elution gradient increasing linearly the proportion of B from 15 to 37% in 2 min, from 37 to 47% in 6 min, followed by 2 min at 90% was applied with a constant flow rate of 1.2 mL/min. The proportion of B was then returned to the initial condition for 3.0 min.
(§3) The half life time of conjugate corresponds to the time necessary to have 50% by mole of free camptothecin, analogs or derivatives thereof released by the conjugates of the invention. In human plasma, the half life time of conjugate DPV1047-linker #1-SN38 (less than 5 mins) was shorter than that of conjugate DPV1047-linker #2-SN38 (6-7 mins), which, in turn, was shorter than that of conjugate DPV1047-linker #3-SN38 (12 mins).
(§4) As in Example II, the stability of these conjugates was tested in either human or dog plasma. Following incubation at 37° C., samples were analyzed after a TFA acetonitrile extraction by the HPLC fluorescence method described in Example II. The in vitro cytotoxicity (IC50) of these compounds was also evaluated.

Experiment in data set [2]: as above
Format: in vitro ADME. Conditions: dog, read-out: Dog Plasma Half life time. As to the method:
as §1, §2, §3, §4

The test system of data set [3] is HCT 116 human epithelial colon carcinoma cells. In words: cells. Format: cell-based. Here is the method:
(§5) Cytotoxic evaluation was performed by seeded cells for 24 h prior to the addition of the therapeutic compound. Cells were incubated for 48 h (37° C.) with different dilutions of the therapeutic compound. Cell viability was then assessed using the WST-1 assay (Roche). The results are expressed as mean cytotoxic concentrations (IC50 value or molar concentration that inhibits 50% of cell viability) that were estimated from sigmoid regression, using Graph Pad Prism 3.02 software.
HCT 116 (ATCC #: CCL-247): human epithelial colon carcinoma cells. Cells were cultured in Mc Coy's 5a medium+1.5 mM L-glutamine and 10% fetal bovine serum. Cells were plated at a density of 8000 cells/well in 96-well plates.

Data set [4] deals with NCI-H460 human epithelial lung carcinoma cells. In words: In vitro cytotoxicity (WST-1 cell viability). Format: cell-based. As to the method: as §5
NCI-H460 (ATCC#: HTB-177): human epithelial lung carcinoma cells. Cells were cultured in RPMI 1640+glutamax and 10% of fetal bovine serum. Cells were plated at a density of 10,000 cells/well in 96-well plates.
For orientation: Tetrazolium assays rely on reduction of a dye to a coloured formazan, in cell work by metabolically active cells.

Where [5] appears, read: Table 14, 10-Hydroxycamptothecin conjugates.

As for `CC[C@H](C)[C@H](NC(=O)[C@H](CCCCN)NC(=O)[C@@H](NC(=O)[C@H](CCC(N)=O)NC(=O)[C@H](CCCNC(=N)N)NC(=O)[C@@H](N)CSC1CC(=O)N(CC2CCC(C(=O)NC[C@H]3CC[C@H](C(=O)Oc4ccc5nc6c(cc5c4)Cn4c-6cc5c(c4=O)COC(=O)[C@]5(O)CC)CC3)CC2)C1=O)[C@@H](C)CC)C(=O)N[C@@H](Cc1c[nH]c2ccccc12)C(=O)N[C@@H](Cc1ccccc1)C(=O)N[C@@H](CCC(N)=O)C(=O)N[C@@H](CC(N)=O)C(=O)N[C@@H](CCCNC(=N)N)C(=O)N[C@@H](CCCNC(=N)N)C(=O)N[C@@H](CCSC)C(=O)N[C@@H](CCCCN)C(=O)N[C@@H](Cc1c[nH]c2ccccc12)C(=O)N[C@@H](CCCCN)C(=O)N[C@@H](CCCCN)C(=O)O` (some centres unmarked), the half-life (as a rule, how long it takes for the measured level to halve) was 0.533 h in data set [1] (setting [5]) and 1.83 h in data set [2] (setting [5]). Besides, the IC50 in data set [3] (48 h) amounted to 194 nM; in data set [4] (48 h), 161 nM.
Regarding `CC[C@@]1(O)C(=O)OCc2c1cc1n(c2=O)Cc2cc3cc(OC(=O)[C@H]4CC[C@H](CNC(=O)C5CCC(CN6C(=O)CC(SC[C@H](N)C(=O)N[C@H](C(=O)N[C@@H](CCCCN)C(=O)N[C@@H](CCCNC(=N)N)C(=O)NCC(=O)N[C@@H](CC(C)C)C(=O)N[C@@H](CCCCN)C(=O)N[C@@H](CC(C)C)C(=O)N[C@@H](CCCNC(=N)N)C(=O)N[C@@H](Cc7c[nH]cn7)C(=O)N[C@H](C(=O)N[C@@H](CCCNC(=N)N)C(=O)N7CCC[C@H]7C(=O)N[C@@H](CCCNC(=N)N)C(=O)N[C@H](C(=O)N[C@H](C(=O)N[C@@H](CCCNC(=N)N)C(=O)N[C@@H](CCSC)C(=O)N[C@@H](CC(=O)O)C(=O)N[C@H](C(=O)O)C(C)C)[C@@H](C)O)C(C)C)C(C)C)C(C)C)C6=O)CC5)CC4)ccc3nc2-1` (some centres unmarked) [DPV1047-linker #5-10 Hydroxycamptothecin] (H-C(X4)VKRGLKLRHVRPRVTRMDV-OH; N-terminus and C-terminus assumed), the half-life in data set [1] (setting [5]) turned out to be 3.57 h; in data set [2] (setting [5]), 3 h. The IC50 in data set [3] (48 h) stood at 185 nM; in data set [4] (48 h) it was 112 nM.
`CCc1c2c(nc3ccc(OC(=O)[C@H]4CC[C@H](CNC(=O)C5CCC(CN6C(=O)CC(SC[C@H](N)C(=O)N[C@@H](CCCNC(=N)N)C(=O)N[C@@H](CCC(N)=O)C(=O)N[C@H](C(=O)N[C@@H](CCCCN)C(=O)N[C@H](C(=O)N[C@@H](Cc7c[nH]c8ccccc78)C(=O)N[C@@H](Cc7ccccc7)C(=O)N[C@@H](CCC(N)=O)C(=O)N[C@@H](CC(N)=O)C(=O)N[C@@H](CCCNC(=N)N)C(=O)N[C@@H](CCCNC(=N)N)C(=O)N[C@@H](CCSC)C(=O)N[C@@H](CCCCN)C(=O)N[C@@H](Cc7c[nH]c8ccccc78)C(=O)N[C@@H](CCCCN)C(=O)N[C@@H](CCCCN)C(=O)O)[C@@H](C)CC)[C@@H](C)CC)C6=O)CC5)CC4)cc13)-c1cc3c(c(=O)n1C2)COC(=O)[C@]3(O)CC` (some centres unmarked) [Penetratin-linker #5-SN38]: the half-life in data set [1] (Table 10, SN38 conjugates) is 1 h; in data set [2] (Table 10, SN38 conjugates) it was 2.5 h. Further, the IC50 came to 57 nM in data set [3] (24 h) and 53 nM in data set [4] (24 h).
For “Tat-linker #7-10 Hydroxycamptothecin: Tat48-60 peptide coupled via linker #7 to 10-Hydroxycamptothecin (GRKKRRQRRRAHQ; also: coupled via linker #7 to 10-hydroxycamptothecin, site not given here; UniProt P04608 48-60, looked up, fragment)”, the IC50 is 158 nM in data set [3] (Table 15, 48 h continuous exposure, mean of three independent experiments, read-out: Drug concentration that inhibits 50% of cell viability (IC50), HCT 116) and 127 nM in data set [4] (Table 15, 48 h continuous exposure, mean of three independent experiments, read-out: Drug concentration that inhibits 50% of cell viability (IC50), NCI-H460).
